Data on nine compounds can be found in patent US10047341B2, “Generation of keratinocytes from pluripotent stem cells and maintenance of keratinocyte cultures” (FUJIFILM Cellular Dynamics, Inc., priority 2014, dated 2018).

“Also recorded” adds a separate entry of the source.

In one test the test system is human ESC/iPSCs. Nature of the test: iKCs derivation from human ESC/iPSCs: critical medium components. The format is cell-based. Conditions: for K14 expression with different fibroblast growth factors: anti-K14 immunofluorescence.
Test [1] deals with primary human keratinocytes. The test is described as follows: Morphology analysis of primary keratinocytes. Format: cell-based.
Test [2] deals with primary human keratinocytes. Nature of the test: Long-term culture of primary keratinocytes (population doubling). Conditions: for keratinocyte growth: KCM1 with IGF or insulin 0-10 μg/mL; for life span and stemness of primary keratinocytes in culture: niacinamide 3 mM, BMP4 0.5 ng/mL as components of KCM4.
Experimental: Keratinocytes were maintained in the indicated medium and passaged every 4-5 days (at ˜80% confluence). For passage, keratinocytes were incubated with a 0.1% Trypsin in Versene solution at 37° C. for 5 minutes. The trypsin was neutralized with 0.5 mg/mL of trypsin inhibitor. The cells were centrifuged at 1200 rpm for 4 min. Cells were counted with a Cellometer (Nexcelom). Cells (25,000-50,000) were plated per well of 6-well plates in the indicated keratinocyte culture media. Media was changed every other day.
Cells were maintained by serial passage at ˜80% confluence until senescence. The total number of cell doublings for each passage was calculated using the following formula: 3.32 log(N/No). Where No refers to the number of cells plated at the beginning of each passage and N is the number of cells recovered at the end of each passage.
In test [3] the test system is primary human keratinocytes. The test is described as follows: Colony formation assay (CFA) of primary keratinocytes. The format is cell-based. Conditions: for performance in CFA: KCM1 supplemented with either IGF or insulin, CFA in KCM1 (10 μg/mL insulin), 12 days. The procedure:
Cells were plated at low density (250 cells/well of a 6-well plate) and allowed to grow for 8-12 days. For FIGS. 7 and 8, cells were switched from the indicated culture medium to KCM1 (10 μg/mL insulin) at the beginning of the CFA. Keratinocytes were cultured in KCM1 (10 μg/mL insulin) for 12 days and colony size was measured. For FIGS. 9, 10, and 12, the CFAs were performed with the medium used for maintaining the keratinocytes. KCM4 needed to be supplemented with 5 μg/mL insulin to support colony growth. Colonies were allowed to grow for 8 days and colony size was measured. Following culture, plates were fixed and stained with Hoechst stain. The whole plate was imaged at 40× with an ImageXpress high content imager (Molecular Devices). The total number of colonies per well was counted and the size of each colony was measured using ImageJ software. Colony counts are shown in bar graphs where bar height represents the average number of colonies/well for each passage and the error bars represent the standard deviation. Colony sizes are presented in box and whisker plots where the center line represents the median, the box represents the inter-quartile range and the whiskers represent the 5-95 percentile. Data that fall outside this range are plotted individually.

Test [4] deals with primary keratinocytes cultured in KCM4. The format is cell-based, human. Conditions: Passage 3 keratinocytes in KCM4, 1.5 mM Ca^2+ for 3 days. The procedure:
Keratinocytes were cultured in KCM4 and at 80%-90% confluence, cells were either treated with 1.5 mM Ca^2+ for 3 days or fixed (no calcium control). Cells were assessed by immunocytochemistry for expression of differentiation markers Kl, Loricrin, and Filaggrin using polyclonal rabbit antibodies (Covance).

[5] abbreviates: Passage 0, Day 14 differentiation culture, phase-contrast.
[6] abbreviates: Passage 0, Day 14 differentiation culture.
Setting [7] is: KCM1, IGF and low concentrations of insulin (0.05 μg/mL and 0 μg/mL).

For the compound “EGF: epidermal growth factor (NSDSECPLSHDGYCLHDGVCMYIEALDKYACNCVVGYIGERCQYRDLKWWELR; UniProt P01133 971-1023, looked up)”, the “differentiation when concentration of component is not sufficient” value in the test on human ESC/iPSCs (setting [5]) is on record as “the differentiation process was incomplete”.
For the compound VEGF, in test [1] (VEGF 25 ng/mL added to KCM4), the “morphology after addition of VEGF” value was “did not show any morphological differences”. Besides, in test [2] (VEGF 25 ng/mL added to KCM4), the “proliferative potential in long-term culture” value is recorded as “increase the proliferative potential of keratinocytes; also recorded: increased the proliferative potential of primary keratinocytes”. Further, in test [3] (VEGF 25 ng/mL added to KCM4), the “effect in CFA in later passages” value was “Positive effect”.
Regarding FGF2: fibroblast growth factor FGF2, in the test on human ESC/iPSCs (setting [6]), the “K14 expression with different fibroblast growth factors” value is recorded as “did not promote homogeneous K14 expression”.
In the case of “insulin: insulin, medium supplement (0-10 μg/mL)”, the “morphology at later passages (p6)” value was “smaller and appear to be more tightly attached to each other” in test [1] (setting [7]); “many larger, differentiated cells” in test [1] (KCM1, high concentrations of insulin (1 μg/mL and higher)). The keratinocyte growth entry in test [2] is recorded as “grew well at all concentrations”; in test [2] (listed as Insulin), “support human neonatal foreskin primary keratinocyte growth”. Also, in test [3], the “performance in CFA” value is “performed similarly”.
For FGF1: acidic fibroblast growth factor, the “K14 expression with different fibroblast growth factors” value with human ESC/iPSCs (setting [6]) is recorded as “efficiently direct cells to express mature keratinocyte marker K14”.
For the compound `Cc1cccc(-c2[nH]ncc2-c2ccc3ncccc3n2)n1` [TGFRKi, TGFβ RI Kinase Inhibitor II, reference compound], the “iKCs derivation when component is left out of the media” value in the test on human ESC/iPSCs (setting [5]) is listed as “iKCs cannot be derived efficiently”.
On to `[Ca+2]` [calcium], for which the “differentiation at too high medium level of component” value in the test with human ESC/iPSCs (1 mM) is given as “simple epithelial progenitors would not further differentiate into keratinocytes”. In test [4], the “expression of differentiation markers Keratin 1, Loricrin, and Filaggrin” value is reported as “Expression of all three differentiation markers was detected”.
Take `NC(=O)c1cccnc1` [niacinamide, reference compound]: the “differentiation when concentration of component is not sufficient” value with human ESC/iPSCs (setting [5]) was “the differentiation process was incomplete”. In addition, the cell size entry in test [1] (primary keratinocytes cultured in the indicated medium) was “made the cells smaller”. The “life span and stemness of primary keratinocytes in culture” value in test [2] is listed as “maintained the stemness of primary keratinocyte stem cells in culture”; in test [2] (listed as Niacinamide) it was “extend the life span of primary keratinocytes in culture”.
On to “IGF: IGF1 growth factor, medium supplement (10 ng/mL)”, for which, in test [1] (setting [7]), the “morphology at later passages (p6)” value is “smaller and appear to be more tightly attached to each other”. Further, the keratinocyte growth result in test [2] is given as “support human neonatal foreskin primary keratinocyte growth”. For the same compound, the “performance in CFA” value in test [3] was “performed similarly”.
